What was measured:
barnacle cypris larvae = experiment: settling and metamorphosis of barnacle cypris larvae in Petri dish with filtered seawater; type: in vivo, Balanus improvisus; conditions: 20 cypris larvae in 5 ml filtered seawater; for inhibition of settling rate of barnacle cypris larvae, compared between substances and control: 1 μM and 10 μM, accumulative settling frequency over 10 days (FIG. 1)
Description: (§1) All the below described experiments are on the species Balanus improvisus.
In a Petri dish containing 5 ml of filtered seawater, 20 cypris larvae and a defined concentration of the different pharmacological agents. […] 20 barnacle cypris larvae were added into a Petri dish containing 5 ml filtered seawater and different concentration of haloperidole and SCH 23990. […] Instead 1 μM of SCH 23390 inhibits the settling rate almost completely. Typically, 0.01-1.0% of the dopamine antagonist effects the desired result, typically dissolved in ethanol and mixed with commercially available paints, such as VC 17 New Technology (solid paint) International Coatings (Akzo Nobel bv, Arnhem, NL), SPF (Self polishing, SPC) (Loutrec AB, Lidingo, Sweden), TF (combined solid/ablative) (Loutrec AB), Fabi Eco (ablative paint) International Coatings (Akzo Nobel bv).

[1] = tested on: release of barnacle adhesive; experiment: release of barnacle adhesive; design: species or system Balanus improvisus; conditions: in vivo
Source text: as §1
The release of the adhesive is governed by a G-protein coupled receptor and it is possible to stimulate release of the adhesive glands by adding dopamine. According to the same principle, it is possible to block the release of the adhesive proteins by using a dopamine antagonist that block the action of dopamine. […] The invention herein includes use of SCH23390, and salts and derivatives thereof, as well as other D1 or D5 receptor antagonists such as […], SCH 39166, SCH 233388 and the like or antagonists against other receptors with the same function.

O=C(CCCN1CCC(O)(c2ccc(Cl)cc2)CC1)c1ccc(F)cc1 [haloperidol]
inhibition of settling rate of barnacle cypris larvae, compared between substances and control (barnacle cypris larvae): less effective

CN1CCc2cc(Cl)c(O)cc2[C@@H](c2ccccc2)C1 [SCH 23390, (R)-(+)-7-Chloro-8-hydroxy-3-methyl-1-phenyl-2,3,4,5-tetrahydro-1H-3-benzazepine]
inhibition of settling rate of barnacle cypris larvae, compared between substances and control (barnacle cypris larvae): effectively inhibits the settling rate
effect on settlement rate of barnacle cypris larvae (barnacle cypris larvae; 1 μM, accumulative settling over 10 days (FIG. 1)): almost complete reducing effect
inhibition of the release of barnacle adhesive [1]: can inhibit the release of barnacle adhesive

Reference: patent US20060045864A1, “Preventing marine biofouling by inhibiting adhesive release from barnacles” (priority 2004, published 2006)
